Laboratory results from ChEMBL document CHEMBL1201862, “PubChem BioAssay data set” (2004).
Calls of active or inactive are those of the source.

How the values were obtained:
[1] = biological target: T1, Caspase-6 (Homo sapiens, UniProt P55212); test: human caspase-6 inhibitors, dose response, biochemical, VEID-R110 fluorescence, cherry-pick (AID 720632)
T1 sequence (P55212 whole entry): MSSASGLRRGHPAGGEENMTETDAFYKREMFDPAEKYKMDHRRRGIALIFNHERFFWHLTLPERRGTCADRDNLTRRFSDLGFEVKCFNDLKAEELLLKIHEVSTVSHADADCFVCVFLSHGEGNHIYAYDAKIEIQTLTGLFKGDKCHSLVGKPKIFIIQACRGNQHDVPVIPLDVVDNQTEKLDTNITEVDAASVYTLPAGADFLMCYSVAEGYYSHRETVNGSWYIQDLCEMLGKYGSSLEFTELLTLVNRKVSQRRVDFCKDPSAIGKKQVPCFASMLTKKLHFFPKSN

[2] = P. falciparum Dd2 growth inhibitors, dose response, SYBR Green, cherry-picked samples (AID 1159567); type: functional, cell-based
[3] = HepG2 cell cytotoxicity, dose response, cytotoxicity control, cherry-picked samples (AID 1159577); type: functional, cell-based
[4] = test system: Vero; test: host cell cytotoxicity of antiviral hits, dose response, cytotoxicity control for West Nile virus antiviral project, secondary assay (AID 1650); type: functional; conditions: Chlorocebus sabaeus
[5] = test system: Vero; test: West Nile virus antiviral activity, cell-based, CPE readout (AID 1621); type: functional; conditions: Chlorocebus sabaeus
[6] = biological target: T2, Coagulation factor XII (Homo sapiens, UniProt P00748); type: functional;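 note: activated factor XIIa alpha cleaving a fluorogenic AMC peptide substrate; inhibitor potency from loss of enzyme activity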
T2 sequence (P00748 whole entry): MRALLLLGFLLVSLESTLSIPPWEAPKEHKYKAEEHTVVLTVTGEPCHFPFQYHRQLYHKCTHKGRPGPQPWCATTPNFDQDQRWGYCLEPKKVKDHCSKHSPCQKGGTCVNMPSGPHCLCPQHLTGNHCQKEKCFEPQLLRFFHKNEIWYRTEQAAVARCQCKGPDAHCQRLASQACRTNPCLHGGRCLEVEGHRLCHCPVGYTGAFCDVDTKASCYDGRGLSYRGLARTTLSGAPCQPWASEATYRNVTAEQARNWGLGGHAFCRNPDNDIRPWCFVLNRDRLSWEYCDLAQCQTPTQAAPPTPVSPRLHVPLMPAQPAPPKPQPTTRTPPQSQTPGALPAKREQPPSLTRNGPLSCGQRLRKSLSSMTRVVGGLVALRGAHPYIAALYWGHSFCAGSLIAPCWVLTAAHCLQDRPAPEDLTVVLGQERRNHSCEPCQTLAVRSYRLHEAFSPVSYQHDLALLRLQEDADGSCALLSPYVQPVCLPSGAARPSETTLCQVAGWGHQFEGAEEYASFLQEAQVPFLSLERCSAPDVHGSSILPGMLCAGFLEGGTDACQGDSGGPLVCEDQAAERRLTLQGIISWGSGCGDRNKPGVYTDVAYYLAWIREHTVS

[7] = inhibitors of Vif binding to APOBEC3G peptide, primary screen, biochemical, TR-FRET, GST-Vif 1-94, biotin-A3G peptide, dose response retest (AID 1117319); type: functional;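 note: TR-FRET signal of purified GST-Vif binding a biotinylated A3G peptide; inhibitors lower the FRET signal by blocking Vif and A3G binding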
[8] = P. falciparum ATP4 D1247Y mutant growth inhibitors, dose response, NITD609-resistant line, SYBR Green, dry powder (AID 1159571); type: functional, cell-based;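 note: parasites synchronized at ring stage by sorbitol before testing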
[9] = P. falciparum 3D7-ScDHODH growth inhibitors, dose response, SYBR Green, dry powder samples (AID 1159570); type: functional, cell-based;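 note: parasite growth measured after 72 hours of compound exposure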
[10] = P. falciparum Dd2 growth inhibitors, dose response, SYBR Green, dry powder samples (AID 1159566); type: functional, cell-based;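 note: potency for growth inhibition with lower SYBR green DNA signal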
[11] = Vero cell cytotoxicity, dose response, cytotoxicity control for Vif-APOBEC3G degradation inhibitor project, Vero cells (AID 1117358); type: functional; conditions: Human immunodeficiency virus 1, Vero
[12] = biological target: Luciferin 4-monooxygenase (Photinus pyralis, UniProt P08659); test: firefly luciferase enzyme inhibitors, dose response, biochemical, luminescence (AID 1891)
[13] = Luminescence Cell-Based Dose Confirmation HTS to Identify Inhibitors of Platelet Dense Granule Release. [Related pubchem assays: 1663 (Primary HTS), 1678 (Summary of Project)]; type: functional
[14] = Shn3 3'UTR reporter inhibitors, dose response, cell-based, Clone20 osteoblasts, firefly luciferase, cherry-picked (AID 624132); type: functional;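 note: firefly luciferase luminescence from reporter carrying the Shn3 3'UTR in osteoblasts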
[15] = cells; type: functional, cell-based; conditions: HEK-CNG
[16] = biological target: T3, Galanin receptor type 3 (Homo sapiens, UniProt O60755); test: Fluorescence-based cell-based primary high throughput dose response assay to identify antagonists of the Galanin Receptor 3 (GalR3).; type: functional
T3 sequence (O60755 whole entry): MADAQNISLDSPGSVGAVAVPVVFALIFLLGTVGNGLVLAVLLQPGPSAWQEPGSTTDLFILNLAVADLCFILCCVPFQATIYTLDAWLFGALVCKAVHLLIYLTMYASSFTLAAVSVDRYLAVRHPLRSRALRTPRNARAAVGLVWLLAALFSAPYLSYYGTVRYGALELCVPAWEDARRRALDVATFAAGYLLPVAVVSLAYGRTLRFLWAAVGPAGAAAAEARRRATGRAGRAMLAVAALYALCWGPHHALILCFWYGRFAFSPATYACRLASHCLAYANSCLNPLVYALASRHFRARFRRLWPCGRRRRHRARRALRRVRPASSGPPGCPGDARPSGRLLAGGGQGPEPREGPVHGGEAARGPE

[17] = HepG2 cell cytotoxicity, dose response, cytotoxicity control for Shn3 inhibitor project, CellTiter-Glo, cherry-picked (AID 624134); type: functional, cell-based
[18] = biological target: T4, COUP transcription factor 2 (Homo sapiens, UniProt P24468); test: Luminescence-based cell-based high throughput dose response assay to identify inhibitors of COUP-TFII (NR2F2).; type: functional;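 note: HEK293 cells transiently cotransfected with COUP-TFII expression vector and reporter; luciferase reporter luminescence driven by COUP-TFII from the pX2-168 reporter plasmid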
T4 sequence (P24468 whole entry): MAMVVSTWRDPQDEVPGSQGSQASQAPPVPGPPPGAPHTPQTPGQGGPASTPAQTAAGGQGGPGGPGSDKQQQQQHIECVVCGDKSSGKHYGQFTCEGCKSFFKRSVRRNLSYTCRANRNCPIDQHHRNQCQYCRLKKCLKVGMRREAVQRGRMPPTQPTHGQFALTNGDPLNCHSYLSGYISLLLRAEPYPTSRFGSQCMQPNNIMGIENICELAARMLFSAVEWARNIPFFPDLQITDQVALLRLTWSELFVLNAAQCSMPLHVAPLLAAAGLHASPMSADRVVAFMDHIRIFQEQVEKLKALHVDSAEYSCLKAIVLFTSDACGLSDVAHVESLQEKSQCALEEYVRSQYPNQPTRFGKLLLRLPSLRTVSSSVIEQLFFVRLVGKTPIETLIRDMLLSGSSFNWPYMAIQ

[19] = control 3'UTR Renilla luciferase suppression, dose response, counter-screen for Shn3 inhibitor project, cell-based, Clone20-Shn3RL, cherry-picked (AID 624133); type: functional
[20] = inhibitors of PGC1a acetylation in cells, dose response, cell-based, cherry-picked samples (AID 720514); type: functional;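 note: potency may reflect raised or lowered acetylation signal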
[21] = biological target: Cytochrome P450 2C19 (Homo sapiens, UniProt P33261); test: Cytochrome panel assay with activity outcomes. Panel member name: p450-cyp2c19 Compounds with AC50 equal or less than 10 uM are considered active; type: functional; conditions: read-out: AC50
[22] = biological target: T5, Cytochrome P450 1A2 (Homo sapiens, UniProt P05177);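 note: PubChem cytochrome P450 panel assay, CYP1A2 panel member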
T5 sequence (P05177 whole entry): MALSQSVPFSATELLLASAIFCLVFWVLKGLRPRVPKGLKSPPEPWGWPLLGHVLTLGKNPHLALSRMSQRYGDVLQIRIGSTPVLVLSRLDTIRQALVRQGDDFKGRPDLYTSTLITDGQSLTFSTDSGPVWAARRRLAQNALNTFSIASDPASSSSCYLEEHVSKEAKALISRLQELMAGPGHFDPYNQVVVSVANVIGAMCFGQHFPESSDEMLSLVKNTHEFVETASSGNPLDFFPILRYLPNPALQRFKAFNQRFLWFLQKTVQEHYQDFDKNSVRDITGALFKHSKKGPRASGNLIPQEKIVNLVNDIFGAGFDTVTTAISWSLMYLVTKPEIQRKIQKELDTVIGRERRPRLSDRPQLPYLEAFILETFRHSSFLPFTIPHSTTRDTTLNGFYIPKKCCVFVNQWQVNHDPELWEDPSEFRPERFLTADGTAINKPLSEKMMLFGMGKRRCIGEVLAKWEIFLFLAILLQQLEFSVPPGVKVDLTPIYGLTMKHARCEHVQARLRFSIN

[23] = Artemis endonuclease inhibitor potency, dose response, biochemical, fluorescence intensity (AID 720701); type: functional;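 note: Artemis endonuclease enzyme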
[24] = test system: H9c2; test: cells; type: functional, cell-based; conditions: Rattus norvegicus, H9c2, Myocardium;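 note: confirmatory concentration-response retest of ultra-high-throughput screening hits for modulation of myocardial damage; cell death induced by hydrogen peroxide oxidative stress; compound pretreatment for 60 min then peroxide exposure for 2 h; potency is for protecting the cells against peroxide damage rather than for killing them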
[25] = M. tuberculosis H37Rv growth inhibitors, H37Rv strain (AID 1626); type: functional
[26] = biological target: Heat shock protein HSP 90-alpha (Homo sapiens, UniProt P07900); type: functional, organism-based
[27] = biological target: T6, Heat shock factor protein 1 (Mus musculus, UniProt P38532); test: inhibition of MG132-induced HSE-luciferase signal, confirmation, cell-based, NIH3T3, luminescence, dose retest (AID 2382); type: functional;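 note: NIH3T3 fibroblasts with HSF1-driven luciferase reporter stressed by proteasome inhibitor MG132; luminescence from HSF1-driven luciferase expression after 8 hours of MG132 stress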
T6 sequence (P38532 whole entry): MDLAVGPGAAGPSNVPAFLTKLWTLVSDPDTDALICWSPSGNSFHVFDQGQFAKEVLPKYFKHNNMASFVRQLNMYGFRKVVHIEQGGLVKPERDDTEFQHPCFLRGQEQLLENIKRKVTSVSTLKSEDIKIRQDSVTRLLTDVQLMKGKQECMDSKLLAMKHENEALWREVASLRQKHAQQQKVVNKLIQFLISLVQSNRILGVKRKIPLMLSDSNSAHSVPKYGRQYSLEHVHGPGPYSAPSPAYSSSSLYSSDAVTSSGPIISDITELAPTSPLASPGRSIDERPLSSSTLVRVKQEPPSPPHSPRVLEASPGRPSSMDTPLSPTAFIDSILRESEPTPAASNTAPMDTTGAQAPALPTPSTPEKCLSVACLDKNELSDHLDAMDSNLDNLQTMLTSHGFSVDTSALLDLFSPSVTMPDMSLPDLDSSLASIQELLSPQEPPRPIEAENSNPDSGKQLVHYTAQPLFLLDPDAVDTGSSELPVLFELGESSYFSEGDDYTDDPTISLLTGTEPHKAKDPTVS

[28] = cells
[29] = inhibitors of intracellular T. cruzi replication, confirmation, NIH3T3 host cells, beta-gal luminescence (AID 2044); type: functional, cell-based;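 note: intracellular parasites grown in NIH/3T3 mouse fibroblasts as host cells; luminescent beta-galactosidase reporter signal from transgenic T. cruzi replicating inside host cells; inhibitors lower the luminescence signal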

Sequence of Luciferin 4-monooxygenase (P08659 whole entry): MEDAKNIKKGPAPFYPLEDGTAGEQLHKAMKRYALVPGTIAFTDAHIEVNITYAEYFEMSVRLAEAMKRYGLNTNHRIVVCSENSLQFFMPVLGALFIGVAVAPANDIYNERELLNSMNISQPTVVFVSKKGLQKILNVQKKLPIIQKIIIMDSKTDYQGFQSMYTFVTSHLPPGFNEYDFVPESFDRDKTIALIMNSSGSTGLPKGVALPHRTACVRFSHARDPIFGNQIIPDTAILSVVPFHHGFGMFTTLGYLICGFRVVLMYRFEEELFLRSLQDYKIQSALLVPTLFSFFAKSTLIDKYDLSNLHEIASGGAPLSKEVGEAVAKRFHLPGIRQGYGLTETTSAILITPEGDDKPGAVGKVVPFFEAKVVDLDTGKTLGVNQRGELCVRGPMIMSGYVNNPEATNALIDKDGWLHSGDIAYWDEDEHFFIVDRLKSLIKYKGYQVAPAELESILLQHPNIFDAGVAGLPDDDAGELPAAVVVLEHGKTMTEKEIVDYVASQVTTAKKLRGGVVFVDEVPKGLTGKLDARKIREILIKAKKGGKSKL
Sequence of Cytochrome P450 2C19 (P33261 whole entry): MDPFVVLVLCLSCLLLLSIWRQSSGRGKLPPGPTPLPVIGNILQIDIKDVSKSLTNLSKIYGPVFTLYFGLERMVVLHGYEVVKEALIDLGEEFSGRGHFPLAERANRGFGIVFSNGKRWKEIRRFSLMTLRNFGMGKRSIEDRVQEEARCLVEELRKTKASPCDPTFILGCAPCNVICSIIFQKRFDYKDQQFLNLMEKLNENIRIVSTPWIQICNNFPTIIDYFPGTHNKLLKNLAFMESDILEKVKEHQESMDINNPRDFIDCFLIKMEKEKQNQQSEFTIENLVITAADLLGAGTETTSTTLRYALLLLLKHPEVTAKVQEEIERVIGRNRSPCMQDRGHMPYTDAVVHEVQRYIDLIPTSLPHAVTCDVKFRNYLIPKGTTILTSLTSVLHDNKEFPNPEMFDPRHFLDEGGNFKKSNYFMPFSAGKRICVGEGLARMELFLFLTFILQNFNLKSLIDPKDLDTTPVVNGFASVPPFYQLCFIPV

## O=C1NC(Cc2ccc(O)cc2)c2nc3ccc(Br)cc3c(=O)n2-c2ncccc21 (centres undefined)
[1]
  AC50: 35.4 µM (active)

## N#C[C@@H]1[C@H](c2ccc(C#CC3CCCCC3)cc2)[C@@H](CO)N1C(=O)Nc1ccc(F)cc1
[2]
  AC50: 7.33 µM (active)
[3]
  AC50: 14 µM (active)

## COC(=O)c1c(NC(=O)C(Cl)Cl)sc2c1C(C(=O)OC)CC2 (centres undefined)
[4]
  CC50: 34.8 µM (active)
[5]
  IC50: 27.8 µM (active)

## O=C1CN(C(=O)COC(=O)c2oc3ccccc3c2COc2ccccc2)c2ccccc2N1
[6]
  IC50: > 50 µM (inactive)
[7]
  IC50: > 100 µM (active)

## COc1ccc(NC(=O)N(C)C[C@@H]2Oc3c(NC(=O)c4nc5ccccc5s4)cccc3C(=O)N([C@@H](C)CO)C[C@H]2C)cc1
[2]
  AC50: 1.96 µM (active)
[3]
  AC50: > 39 µM (inactive)
[8]
  AC50: 0.606 µM (active)
[9]
  AC50: 0.499 µM (active)
[10]
  AC50: 1.3 µM (active)

## COc1ccccc1NC(=O)c1cc2ccc(O)cc2o/c1=N\O
[11]
  CC50: > 40 µM (active)
[12]
  EC50: 1.03 µM (active)
[13]
  EC50: 6.14 µM (active)
[7]
  IC50: > 100 µM (active)

## CC(=O)c1c(C)[nH]c(C(=O)COc2cc(C)ccc2C(C)C)c1C
[14]
  AC50: 1.25 µM (active)
[15]
  EC50: > 29.9 µM (inactive)
[16]
  IC50: 1.24 µM (active)
[17]
  AC50: 3.12 µM (active)
[18]
  IC50: 5.74 µM (active)
[19]
  AC50: 8.41 µM (active)

## C[C@H]1CN([C@@H](C)CO)S(=O)(=O)c2ccc(C#CC3CCCCC3)cc2O[C@@H]1CN(C)Cc1cccnc1
[20]
  AC50: 10.4 µM (active)

## O=C(N/N=C\c1ccc(-c2ccccc2[N+](=O)[O-])o1)C1COc2cc3ccccc3cc2O1 (centres undefined)
[21]
  AC50: 1.12 µM (inconclusive)
[22]
  AC50: 3.55 µM (inconclusive)
[23]
  IC50: > 20 µM (inactive)

## Cc1nc(NC(=O)c2cc3c(C)nn(-c4ccccc4)c3s2)sc1C(=O)Nc1ccccc1
[24]
  IC50: > 79 µM (inactive)
[23]
  IC50: 1.22 µM (active)

## CCOC(=O)c1ccc(NC(=O)CCc2c(C)nc3ncnn3c2C)cc1
[25]
  IC50: > 100 µM (active)

## CCc1nnc(NC(=O)c2ccc(S(=O)(=O)N(CC(C)C)CC(C)C)cc2)o1
[11]
  CC50: > 40 µM (active)

## C[C@H]1C[C@@H](C)C(=O)[C@@H]([C@H](O)CC2CC(=O)NC(=O)C2)C1
[14]
  AC50: 0.307 µM (active)
[4]
  CC50: 0.96 µM (active)
[26]
  AC50: < 0.195 µM (active)
[27]
  EC50: 0.66 µM (active)
[28]
  EC50: < 0.004 µM (active)
[20]
  AC50: 4.92 µM (active)
[29]
  EC50: < 0.1 µM (active)
[17]
  AC50: > 70 µM (inactive)
[18]
  IC50: 1.03 µM (active)
[19]
  AC50: 2.18 µM (active)
[5]
  IC50: 0.43 µM (active)

## COc1ccc2c3c(n(C)c2c1)[C@@H](CO)N(C(=O)C1CCC1)CC31CN(C(=O)Nc2cccc(F)c2)C1
[2]
  AC50: 2.35 µM (active)
[8]
  AC50: 0.535 µM (active)
[9]
  AC50: 0.515 µM (active)
[10]
  AC50: 0.779 µM (active)

## CCCc1nn(C)c(C(=O)Nc2ccc(CC)cc2)c1Cl
[25]
  IC50: > 100 µM (active)

## COc1ccc(C(=O)Nc2ccc(O)c3c(=O)cc(-c4cccc(Cl)c4)oc23)cc1
[4]
  CC50: 2.74 µM (active)
[5]
  IC50: > 100 µM (active)

## CC(OC(=O)/C=C/c1ccco1)C(=O)NC1CCCCC1 (centres undefined)
[7]
  IC50: > 100 µM (active)
